Data published in ChEMBL document CHEMBL1201862, “PubChem BioAssay data set” (2004).
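Tested at 5 concentrations; 48 h exposure; 96-well plates; endpoints linearly interpolated, else capped at highest concentration. The concentration for 50% growth inhibition is given as GI50.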 The source made the active and inactive calls. Rule as the data show it: active = GI50 up to about 1.1 µM and inactive = higher.

Legend:
Assay in all cases: inhibition of tumour cell growth, NCI panel, 48 h
[1] = system: RPMI-8226
[2] = system: ACHN
[3] = system: SK-MEL-2
[4] = system: A498
[5] = system: TK-10
[6] = system: OVCAR-8
[7] = system: OVCAR-3
[8] = system: SF-295
[9] = system: EKVX
[10] = system: 786-0
[11] = system: HCT-15
[12] = system: CAKI-1
[13] = system: HCT-116
[14] = system: IGROV-1
[15] = system: NCI-H460
[16] = system: UACC-257
[17] = system: HOP-92

For Cc1ccccc1C(=O)Oc1ccc(Oc2ccccc2)cc1, the GI50 [1] was > 100 µM (inactive), the GI50 [2] was 28.4 µM (inactive) and the GI50 [3] was > 100 µM (inactive). The GI50 [4] was 77.6 µM (inactive), the GI50 [5] was 78.2 µM (inactive) and the GI50 [6] was > 100 µM (inactive). For the same compound, the GI50 [7] was > 100 µM (inactive), the GI50 [8] was > 100 µM (inactive) and the GI50 [9] was 73.5 µM (inactive). For the same compound, the GI50 [10] was > 100 µM (inactive), the GI50 [11] was > 100 µM and the GI50 [12] was 72.9 µM (inactive). For the same compound, the GI50 [13] was > 100 µM (inactive), the GI50 [14] was > 100 µM (inactive) and the GI50 [15] was 39.2 µM (inactive). For the same compound, the GI50 [16] was > 100 µM (inactive).

For Cc1ccc(Oc2ccc([N+](=O)[O-])cc2[N+](=O)[O-])c(C)c1, the GI50 [1] was 26.5 µM (inactive), the GI50 [2] was 47.6 µM (inactive) and the GI50 [3] was 56.9 µM (inactive). For the same compound, the GI50 [4] was 37.9 µM (inactive), the GI50 [5] was 96.4 µM (inactive) and the GI50 [6] was 59.2 µM (inactive). The GI50 [7] was 35.2 µM (inactive), the GI50 [8] was 49.3 µM (inactive) and the GI50 [9] was 88.7 µM (inactive). For the same compound, the GI50 [10] was 71.8 µM (inactive), the GI50 [11] was 35.1 µM and the GI50 [12] was 29.8 µM (inactive). For the same compound, the GI50 [13] was 30.3 µM (inactive), the GI50 [14] was > 100 µM (inactive) and the GI50 [15] was 37.3 µM (inactive). The GI50 [16] was 26.1 µM (inactive).

CN1N=C(Nc2ccccc2)Sc2c1cnn(-c1ccccc1)c2=O was tested, and the GI50 [1] was 93.3 µM (inactive), the GI50 [2] was > 100 µM (inactive) and the GI50 [3] was > 100 µM (inactive). The GI50 [4] was > 100 µM (inactive), the GI50 [5] was > 100 µM (inactive) and the GI50 [6] was > 100 µM (inactive). The GI50 [7] was 28.1 µM (inactive), the GI50 [8] was 73.3 µM (inactive) and the GI50 [17] was 6.62 µM (inactive). For the same compound, the GI50 [9] was > 100 µM (inactive), the GI50 [10] was > 100 µM (inactive) and the GI50 [11] was > 100 µM. For the same compound, the GI50 [13] was > 100 µM (inactive), the GI50 [14] was > 100 µM (inactive) and the GI50 [15] was > 100 µM (inactive). For the same compound, the GI50 [16] was > 100 µM (inactive).

For Cc1ccccc1-n1c(C)nc(-c2ccccc2)cc1=O, the GI50 [2] was > 100 µM (inactive), the GI50 [3] was > 100 µM (inactive) and the GI50 [4] was > 100 µM (inactive). The GI50 [5] was > 100 µM (inactive), the GI50 [6] was > 100 µM (inactive) and the GI50 [7] was > 100 µM (inactive). The GI50 [8] was > 100 µM (inactive), the GI50 [17] was > 100 µM (inactive) and the GI50 [9] was > 100 µM (inactive). For the same compound, the GI50 [10] was > 100 µM (inactive), the GI50 [11] was > 100 µM and the GI50 [12] was > 100 µM (inactive). For the same compound, the GI50 [13] was > 100 µM (inactive), the GI50 [14] was > 100 µM (inactive) and the GI50 [15] was > 100 µM (inactive). For the same compound, the GI50 [16] was > 100 µM (inactive).

O=C1OC(c2ccccc2)=N/C1=C\c1cc(Cl)ccc1Cl was tested, and the GI50 [1] was 44.8 µM (inactive), the GI50 [2] was > 100 µM (inactive) and the GI50 [3] was > 100 µM (inactive). The GI50 [4] was > 100 µM (inactive), the GI50 [6] was > 10 µM (inactive) and the GI50 [8] was > 100 µM (inactive). The GI50 [17] was > 100 µM (inactive), the GI50 [9] was > 100 µM (inactive) and the GI50 [10] was 62.2 µM (inactive). For the same compound, the GI50 [11] was 16.4 µM, the GI50 [13] was 10.3 µM (inactive) and the GI50 [14] was > 100 µM (inactive). For the same compound, the GI50 [15] was > 100 µM (inactive) and the GI50 [16] was > 100 µM (inactive).

COc1cccc(-c2cc(=O)c3cc(C)c(C)c(C(=O)O)c3o2)c1 was tested, and the GI50 [1] was > 100 µM (inactive), the GI50 [2] was > 100 µM (inactive) and the GI50 [3] was > 100 µM (inactive). The GI50 [4] was > 100 µM (inactive), the GI50 [5] was > 100 µM (inactive) and the GI50 [6] was > 100 µM (inactive). The GI50 [7] was > 100 µM (inactive), the GI50 [8] was > 100 µM (inactive) and the GI50 [17] was > 100 µM (inactive). For the same compound, the GI50 [9] was > 100 µM (inactive), the GI50 [10] was > 100 µM (inactive) and the GI50 [11] was > 100 µM. The GI50 [13] was > 100 µM (inactive), the GI50 [14] was > 100 µM (inactive) and the GI50 [15] was > 100 µM (inactive). The GI50 [16] was > 100 µM (inactive).

In the case of Nc1c(C(=O)NC23CC4CC(CC(C4)C2)C3)[n+]([O-])c2ccccc2[n+]1[O-], the GI50 [1] is reported as > 100 µM (inactive), the GI50 [2] is reported as > 100 µM (inactive) and the GI50 [3] is reported as > 100 µM (inactive). The GI50 [4] was > 100 µM (inactive), the GI50 [5] was > 100 µM (inactive) and the GI50 [6] was > 100 µM (inactive). For the same compound, the GI50 [7] was > 100 µM (inactive), the GI50 [8] was > 100 µM (inactive) and the GI50 [17] was 90.4 µM (inactive). For the same compound, the GI50 [9] was > 100 µM (inactive), the GI50 [10] was > 100 µM (inactive) and the GI50 [11] was > 100 µM. For the same compound, the GI50 [12] was > 100 µM (inactive), the GI50 [14] was > 100 µM (inactive) and the GI50 [15] was > 100 µM (inactive). The GI50 [16] was > 100 µM (inactive).
